Assay results taken from patent publication US12077503B2, “Substituted cyclic amides and their use as herbicides” (FMC CORPORATION, priority 2015, dated 2024).

What was measured:
Format in all cases: in vivo
[1] = system: wheat (Triticum aestivum); experiment: Test A preemergence; conditions: Triticum aestivum, pre-emergence, 240 h, 0 to 100 scale (0 no effect, 100 complete control), read-out: Plant response rating, Wheat
How it was run: (§1)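 Compounds were formulated in a non-phytotoxic solvent mixture with surfactant and applied as a preemergence directed soil spray after seeding, or sprayed postemergence over plants 2 to 10 cm tall at the one- to two-leaf stage. Evaluation after about 10 d compared treated with untreated controls, using a scale from 0 (no effect) to 100 (complete control).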

corn (Zea mays) = experiment: Test A preemergence; conditions: Zea mays, pre-emergence, 240 h, 0 to 100 scale (0 no effect, 100 complete control)
How it was run: as §1

[2] = system: morningglory (Ipomoea spp.); experiment: Test A preemergence; conditions: Ipomoea, pre-emergence, 240 h, 0 to 100 scale (0 no effect, 100 complete control), read-out: Plant response rating, Morningglory
How it was run: as §1

[3] = system: velvetleaf (Abutilon theophrasti); experiment: Test A preemergence; conditions: Abutilon theophrasti, pre-emergence, 240 h, 0 to 100 scale (0 no effect, 100 complete control), read-out: Plant response rating, Velvetleaf
How it was run: as §1

[4] = system: crabgrass, large (Digitaria sanguinalis); experiment: Test A preemergence; conditions: Digitaria sanguinalis, pre-emergence, 240 h, 0 to 100 scale (0 no effect, 100 complete control), read-out: Plant response rating, Crabgrass, Large
How it was run: as §1

[5] = system: morningglory (Ipomoea spp.); experiment: Test A postemergence; conditions: Ipomoea, post-emergence, 240 h, Postemergence
How it was run: as §1

[6] = system: velvetleaf (Abutilon theophrasti); experiment: Test A postemergence; conditions: Abutilon theophrasti, post-emergence, 240 h, Postemergence
How it was run: as §1

[7] = system: crabgrass, large (Digitaria sanguinalis); experiment: Test A postemergence; conditions: Digitaria sanguinalis, post-emergence, 240 h, Postemergence
How it was run: as §1

O=C1NCC(c2ccccc2)C1C(=O)Nc1ccc(C(F)(F)F)cc1 (stereo not shown) [Compound 1362]
0%: plant injury at 500 g/ha ([1]; 500 g ai/ha, preemergence) | plant injury at 125 g/ha ([1]; Preemergence, 125 g ai/ha) | Corn plant response rating (crop injury, 0 = no effect, 100 = complete kill) at 500 g/ha (corn (Zea mays); 500 g ai/ha, preemergence) | Corn plant response rating (crop injury, 0 = no effect, 100 = complete kill) at 125 g/ha (corn (Zea mays); Preemergence, 125 g ai/ha) | pest or weed control at 500 g/ha ([2]; 500 g ai/ha, preemergence) | pest or weed control at 125 g/ha ([2]; Preemergence, 125 g ai/ha) | pest or weed control at 500 g/ha ([3]; 500 g ai/ha, preemergence) | pest or weed control at 125 g/ha ([3]; Preemergence, 125 g ai/ha) | pest or weed control at 500 g/ha ([4]; 500 g ai/ha, preemergence) | pest or weed control at 125 g/ha ([4]; Preemergence, 125 g ai/ha) | pest or weed control at 125 g/ha ([5]; 125 g ai/ha, visual rating about 10 d after treatment, read-out: Morningglory plant response rating (0 to 100 scale)) | pest or weed control at 500 g/ha ([5]; 500 g ai/ha, visual injury, 0 to 100 scale (0 no effect, 100 complete control), approx. 10 d, read-out: Plant response rating, Morningglory) | pest or weed control at 125 g/ha ([6]; 125 g ai/ha, visual rating about 10 d after treatment, read-out: Velvetleaf plant response rating (0 to 100 scale)) | pest or weed control at 500 g/ha ([6]; 500 g ai/ha, visual injury, 0 to 100 scale (0 no effect, 100 complete control), approx. 10 d, read-out: Plant response rating, Velvetleaf) | pest or weed control at 125 g/ha ([7]; 125 g ai/ha, visual rating about 10 d after treatment, read-out: Crabgrass, Large plant response rating (0 to 100 scale)) | pest or weed control at 500 g/ha ([7]; 500 g ai/ha, visual injury, 0 to 100 scale (0 no effect, 100 complete control), approx. 10 d, read-out: Plant response rating, Crabgrass, Large)
